Data: patent publication US20250312258A1, “2,3-PYRROLIDINEDIONE CONJUGATES AND METHODS OF USING THEREOF” (North Carolina State University, priority 2022, published 2025)
In brackets after ≈: the same amount, converted by molar mass. Where two headings read alike, the source gives them in different places.

How the values were obtained:
[1] = system: vanC-1 VRE 49608; assay: MIC against vanC-1 VRE 49608; format: cell-based, Enterococcus spp.; details: Enterococcus, VRE
[2] = system: MRSA; assay: MIC against MRSA strain panel; format: cell-based; details: Staphylococcus aureus, the 4th table
[3] = system: VRSA; assay: MIC against VRSA strain panel (VRS/NRS strains); format: cell-based; details: Staphylococcus aureus
[4] = system: S. aureus 29213; assay: Broth microdilution MIC, S. aureus 29213; format: cell-based, Staphylococcus aureus
[5] = system: MRSA 33591; assay: Broth microdilution MIC, MRSA 33591; format: cell-based; details: Staphylococcus aureus, read-out: MIC (MRSA 33591)
[6] = system: S. pneumoniae; assay: MIC against S. pneumoniae strain panel; format: cell-based; details: Streptococcus pneumoniae
[7] = system: Group A Strep; assay: MIC against Group A Strep strain panel; format: cell-based

Compound: CN[C@H](CC(C)C)C(=O)N[C@H]1C(=O)N[C@@H](CC(N)=O)C(=O)N[C@H]2C(=O)N[C@H]3C(=O)N[C@H](C(=O)N[C@H](C(=O)O)c4cc(O)cc(O)c4-c4cc3ccc4O)[C@H](O)c3ccc(c(Cl)c3)Oc3cc2cc(c3O[C@@H]2O[C@H](CO)[C@@H](O)[C@H](O)[C@H]2O[C@H]2C[C@](C)(N)[C@H](O)[C@H](C)O2)Oc2ccc(cc2Cl)[C@H]1O [Vancomycin, vancomycin, reference compound]
- MIC [1]: 32 µg/mL (≈ 22.1 µM)
- MIC ([1]; read-out: MIC (vanC-1 VRE 49608)): 32 µg/mL (≈ 22.1 µM)
- MIC ([2]; 6215 MRSA): 1 µg/mL (≈ 0.69 µM)
- MIC ([2]; 6217 MRSA): 1 µg/mL (≈ 0.69 µM)
- MIC ([2]; 6218 MRSA): 1 µg/mL (≈ 0.69 µM)
- MIC ([2]; 6220 MRSA): 0.5 µg/mL (≈ 0.345 µM)
- MIC ([2]; 6231 MRSA): 0.5 µg/mL (≈ 0.345 µM)
- MIC ([2]; AR-978 MRSA): 1 µg/mL (≈ 0.69 µM)
- MIC ([2]; AR-979 MRSA): 1 µg/mL (≈ 0.69 µM)
- MIC ([2]; AR-993 MRSA): 1 µg/mL (≈ 0.69 µM)
- MIC ([2]; AR-997 MRSA): 1 µg/mL (≈ 0.69 µM)
- MIC ([3]; NRS 1 / VRSA, NRS-1 (VRSA), the 3rd table): 8 µg/mL (≈ 5.52 µM)
- MIC ([3]; NRS 1 / VRSA, NRS-1 VRSA, the 5th table): 8 µg/mL (≈ 5.52 µM)
- MIC ([3]; NRS 2 / VRSA, NRS-2 VRSA, the 5th table): 1 µg/mL (≈ 0.69 µM)
- MIC ([3]; VRSA, VRS-1 (VRSA), the 3rd table): > 64 µg/mL
- MIC ([3]; VRSA, VRS-1 VRSA, the 5th table): > 64 µg/mL
- MIC ([3]; VRSA, VRS-2 (VRSA), the 3rd table): 32 µg/mL (≈ 22.1 µM)
- MIC ([3]; VRSA, VRS-2 VRSA, the 5th table): 32 µg/mL (≈ 22.1 µM)
- MIC ([3]; VRSA, VRS-3a VRSA, the 5th table): 32 µg/mL (≈ 22.1 µM)
- MIC ([3]; VRSA, VRS-3b VRSA, the 5th table): > 64 µg/mL
- MIC ([3]; VRSA, VRS-4 (VRSA), the 3rd table): 32 µg/mL (≈ 22.1 µM)
- MIC ([3]; VRSA, VRS-4 VRSA, the 5th table): > 64 µg/mL
- MIC ([3]; VRSA, VRS-5 VRSA, the 5th table): > 64 µg/mL
- MIC ([3]; VRSA, VRS-6 VRSA, the 5th table): > 64 µg/mL
- MIC ([3]; VRSA, VRS-7 VRSA, the 5th table): > 64 µg/mL
- MIC ([3]; VRSA, VRS-8 VRSA, the 5th table): > 64 µg/mL
- MIC ([3]; VRSA, VRS-9 VRSA, the 5th table): > 64 µg/mL
- MIC ([3]; VRSA, VRS-10 VRSA, the 5th table): > 64 µg/mL
- MIC ([3]; VRSA, VRS-11a VRSA, the 5th table): > 64 µg/mL
- MIC ([3]; VRSA, VRS-11b VRSA, the 5th table): > 64 µg/mL
- MIC ([4]; Staphylococcus aureus, 29213, read-out: MIC (S. aureus 29213)): 1 µg/mL (≈ 0.69 µM)
- MIC ([4]; Staphylococcus aureus, ATCC 29213 / MRSA): 0.5 µg/mL (≈ 0.345 µM)
- MIC [5]: 2 µg/mL (≈ 1.38 µM)
- MIC ([6]; ATCC49619, ATCC 49619 S. pneumoniae, CA-MHB w/5% LHB, the 4th table): 0.25 µg/mL (≈ 0.173 µM)
- MIC ([6]; ATCC49619, ATCC 49619 S. pneumoniae, the 7th table): ≤ 0.125 µg/mL
- MIC ([6]; CO314937 S. pneumoniae, CA-MHB w/5% LHB, the 4th table): 0.25 µg/mL (≈ 0.173 µM)
- MIC ([6]; CT3-5008 S. pneumoniae, the 7th table): 0.25 µg/mL (≈ 0.173 µM)
- MIC ([6]; CT3-5803 S. pneumoniae, the 7th table): 0.25 µg/mL (≈ 0.173 µM)
- MIC ([6]; CT3-8501 S. pneumoniae, the 7th table): 0.25 µg/mL (≈ 0.173 µM)
- MIC ([6]; CT4-3048 S. pneumoniae, the 7th table): 0.5 µg/mL (≈ 0.345 µM)
- MIC ([6]; CT4-9046 S. pneumoniae, the 7th table): 0.25 µg/mL (≈ 0.173 µM)
- MIC ([6]; CT4-9693 S. pneumoniae, the 7th table): 0.25 µg/mL (≈ 0.173 µM)
- MIC ([6]; CT5-6541 S. pneumoniae, the 7th table): 0.25 µg/mL (≈ 0.173 µM)
- MIC ([6]; CT5-8032 S. pneumoniae, the 7th table): 0.5 µg/mL (≈ 0.345 µM)
- MIC ([6]; CT5-9124 S. pneumoniae, the 7th table): 0.25 µg/mL (≈ 0.173 µM)
- MIC ([6]; CT6-0670 S. pneumoniae, the 7th table): 0.5 µg/mL (≈ 0.345 µM)
- MIC ([6]; CT6-7691 S. pneumoniae, the 7th table): 0.25 µg/mL (≈ 0.173 µM)
- MIC ([6]; CT0200-2241 S. pneumoniae, the 7th table): 0.25 µg/mL (≈ 0.173 µM)
- MIC ([6]; CT0200-2730 S. pneumoniae, the 7th table): 0.25 µg/mL (≈ 0.173 µM)
- MIC ([6]; MD77773 S. pneumoniae, CA-MHB w/5% LHB, the 4th table): 0.5 µg/mL (≈ 0.345 µM)
- MIC [7]: 0.25 µg/mL (≈ 0.173 µM)
- MIC ([7]; 2007-11 Group A Strep, the 8th table): 0.25 µg/mL (≈ 0.173 µM)
- MIC ([7]; 2007-28 Group A Strep, the 8th table): 0.25 µg/mL (≈ 0.173 µM)
- MIC ([7]; 2007-49 Group A Strep, the 8th table): 0.25 µg/mL (≈ 0.173 µM)
- MIC ([7]; 2007-73 Group A Strep, the 8th table): 0.25 µg/mL (≈ 0.173 µM)
- MIC ([7]; 2007-107 Group A Strep, the 8th table): 0.25 µg/mL (≈ 0.173 µM)
- MIC ([7]; 2007-1101 Group A Strep, the 8th table): 0.25 µg/mL (≈ 0.173 µM)
- MIC ([7]; 2008-06 Group A Strep, the 8th table): 0.25 µg/mL (≈ 0.173 µM)
- MIC ([7]; 2008-45 Group A Strep, the 8th table): 0.25 µg/mL (≈ 0.173 µM)
- MIC ([7]; 2008-818 Group A Strep, CA-MHB w/5% LHB, the 4th table): 0.25 µg/mL (≈ 0.173 µM)
- MIC ([7]; 2008-1565 Group A Strep, the 8th table): 0.25 µg/mL (≈ 0.173 µM)
- MIC ([7]; 2008-1692 Group A Strep, the 8th table): 0.25 µg/mL (≈ 0.173 µM)
